# According to US3969521A, “Pharmaceutical compositions containing tetrahydroalstonine and method for treating circulation disorders” (Science Union et Cie, Societe Francaise de Recherche Medical, priority 1974, dated 1976):
# Entries after “also recorded” stand apart in the source; their conditions may differ.
# What was measured:
# [1] = system: recovery of learned memories; assay: Recovery of learned memories after electroshock (aquatic maze crossing); type: in vivo, rat
# Text: Effects of tetrahydroalstonine on the recovery of learned memories on rats.
# Tetrahydroalstonine has been tested on lots of rats in order to determine how fast it allows the recovery of learned memories after supramaximal electroshock in comparision with Vincamine and Papaverine. These last compounds are known to be active on the circulation namely as vasodilating agents.
# In this test, as described by C. Giurgea (J. Pharmacol. (Paris) 3 17 (1972)), the rats are submitted to a submaximal electroshock which causes a spatio-temporal desorientation. This syndrom is evidenced by the difficulties the tested animals encountered for crossing over a maze filled with cold water without any error, after they have been submitted to the electroshock. The rats have been previously trained to swimm through this maze and the training has been renewed four times for 2 days.
# The electric shock was delivered by means of a Neurovar apparatus (ALVAR Electronics) the third day. 20 Minutes after the electro shock, each lot of rats is tested and the time for crossing over the maze is determined. Immediately after, the rats received the compound to be tested by intra oesophageal tubing. Each lot is then experienced four times, 1, 2, 3, and 4 hours after the electroshock.
# The score of performances of each individual is recorded and every error during the crossing over noticed.
# The compounds to be tested (papaverine, vincamine and tetrahydroalstonine) are given to the animals, suspended in an aqueous solution of carboxymethylcellulose and sorbitan monooleate.
# Papaverine and vincamine were administered at dosis ranging from 1 to 20 mg/kg. Tetrahydroalstonine was administered at a dosis of 0.6 mg/kg, 6 mg/kg and 60 mg/kg.
# A lot of rats received only the aqueous solvent under the same volume (0.5 ml/100 g animal) as controls.
# Therein are reported for each lot of rats the number of errors and the average time for crossing over the maze during the 5 tests performed after the animals have been subjected to the electroshock.
# The treatment has been given 20 mn after the electroshock, immediately
# after the first crossing over
# central nervous system = assay: Effects on the central nervous system; type: in vivo
# [2] = system: analgetic effect of Morphine; assay: Analgetic effect of Morphine; conditions: in vivo
# [3] = system: Hexobarbital-induced sleeping time; assay: Hexobarbital-induced sleeping time; type: in vivo; conditions: rodents, high dosages
# [4] = French Pat. 1.397.537; cited from earlier work
# in vivo = conditions: mouse, po
# Procedure: (§1) The search of an acute toxicity has been carried out on lots of mice (Rockland strain) weighing from […]. The mice received orally increasing dosis of tetrahydroalstonine suspended in an aqueous solvent.
# (§2) The animals are kept under survey for 7 days and the deaths are recorded. The average lethal dosis has been graphically calculated according to the method of Wilcoxon and Litchfield. A lot of mice received only the solvent as controls.
# mice (Rockland strain) = assay: Acute toxicity, oral; conditions: mouse, in vivo
# Procedure: as §1, §2
# arterial blood pressure = conditions: dog, in vivo, 100 mg/kg
# Procedure: This test has been carried out on lots of five dogs weighing from 16 to 20 kg. The dogs have been previously anaesthetized with chloralose by intravenous way and the intravenous injection of 50 mg heparine for each dog is renewed every 150 minutes.
# The average arterial blood pressure is determined by dissection of a brachial artery and insertion of a catheter connected with a Statham P23 Db transducer.
# The various parameters have been recorded by means on a polygraph and the hemodynamic survey has been afforded with two tracks-cathodic tubes.
# [5] = system: carrageenin-induced paw oedema; conditions: rat, thesis (Kocialski); cited from earlier work
# [6] = system: sleep after injection of Nembutal; assay: Time of inducing the sleep after injection of Nembutal; type: in vivo; conditions: even at low dosages
# [7] = 0,6 mg/kg P.O., 20 minutes after electroshock (before treatment)
# [8] = 6 mg/kg P.O., 20 minutes after electroshock (before treatment)
# [9] = 60 mg/kg P.O., 20 minutes after electroshock (before treatment)
smiles,measurement,setting,value
COC(=O)C1=CO[C@@H](C)[C@@H]2CN3CCc4c([nH]c5ccccc45)[C@@H]3C[C@H]12 [Tetrahydroalstonine],a = variation of average number of errors as regard as the controls,"[1]; 0,6 mg/kg P.O., 20 minutes (before treatment)",-
same,E = average number of errors,[1]; [7],"12,3"
same,T = average time for crossing over,[1]; [7],"124,2 seconds"
same,E = average number of errors,"[1]; 0,6 mg/kg P.O., 60 minutes","8,4"
same,T = average time for crossing over,"[1]; 0,6 mg/kg P.O., 60 minutes","85,2 seconds"
same,a = variation of average number of errors as regard as the controls,"[1]; 0,6 mg/kg P.O., 60 minutes",-
same,E = average number of errors,"[1]; 0,6 mg/kg P.O., 120 minutes","6,2"
same,T = average time for crossing over,"[1]; 0,6 mg/kg P.O., 120 minutes","66,4 seconds"
same,a = variation of average number of errors as regard as the controls,"[1]; 0,6 mg/kg P.O., 120 minutes",-
same,E = average number of errors,"[1]; 0,6 mg/kg P.O., 180 minutes","3,1"
same,T = average time for crossing over,"[1]; 0,6 mg/kg P.O., 180 minutes","37,9 seconds"
same,a = variation of average number of errors as regard as the controls,"[1]; 0,6 mg/kg P.O., 180 minutes",-
same,"b = statistical value (student's test), number of errors","[1]; 0,6 mg/kg P.O., 180 minutes","0,01"
same,E = average number of errors,"[1]; 0,6 mg/kg P.O., 240 minutes","2,0"
same,T = average time for crossing over,"[1]; 0,6 mg/kg P.O., 240 minutes","29,4 seconds"
same,a = variation of average number of errors as regard as the controls,"[1]; 0,6 mg/kg P.O., 240 minutes",-
same,"b = statistical value (student's test), number of errors","[1]; 0,6 mg/kg P.O., 240 minutes","0,0005"
same,potency compared with papaverine or vincamine,[1]; 0.6 mg/kg,competes with that of 20 mg/kg of papaverine or vincamine
same,time after which the statistically significant decrease of the number of mistakes appeared,[1]; 0.6 mg/kg,180 mn
same,start of the improving effect,[1]; 6 mg/kg,60 mn
same,time after which the statistically significant decrease of the number of mistakes appeared,[1]; 6 mg/kg,120 mn
same,a = variation of average number of errors as regard as the controls,"[1]; 6 mg/kg P.O., 20 minutes (before treatment)",-
same,E = average number of errors,[1]; [8],"12,3"
same,T = average time for crossing over,[1]; [8],"133,5 seconds"
same,E = average number of errors,"[1]; 6 mg/kg P.O., 60 minutes","6,9"
same,T = average time for crossing over,"[1]; 6 mg/kg P.O., 60 minutes","75,1 seconds"
same,a = variation of average number of errors as regard as the controls,"[1]; 6 mg/kg P.O., 60 minutes",-
same,E = average number of errors,"[1]; 6 mg/kg P.O., 120 minutes","4,4"
same,T = average time for crossing over,"[1]; 6 mg/kg P.O., 120 minutes","52,5 seconds"
same,a = variation of average number of errors as regard as the controls,"[1]; 6 mg/kg P.O., 120 minutes",-
same,"b = statistical value (student's test), number of errors","[1]; 6 mg/kg P.O., 120 minutes","0,05"
same,E = average number of errors,"[1]; 6 mg/kg P.O., 180 minutes","3,6"
same,T = average time for crossing over,"[1]; 6 mg/kg P.O., 180 minutes","54,6 seconds"
same,a = variation of average number of errors as regard as the controls,"[1]; 6 mg/kg P.O., 180 minutes",-
same,"b = statistical value (student's test), number of errors","[1]; 6 mg/kg P.O., 180 minutes","0,05"
same,E = average number of errors,"[1]; 6 mg/kg P.O., 240 minutes","2,5"
same,T = average time for crossing over,"[1]; 6 mg/kg P.O., 240 minutes","23,8 seconds"
same,a = variation of average number of errors as regard as the controls,"[1]; 6 mg/kg P.O., 240 minutes",-
same,"b = statistical value (student's test), number of errors","[1]; 6 mg/kg P.O., 240 minutes","0,005"
same,time after which the statistically significant decrease of the number of mistakes appeared,[1]; 60 mg/kg,60 mn
same,a = variation of average number of errors as regard as the controls,"[1]; 60 mg/kg P.O., 20 minutes (before treatment)",-
same,E = average number of errors,[1]; [9],"10,6"
same,T = average time for crossing over,[1]; [9],"135,0 seconds"
same,E = average number of errors,"[1]; 60 mg/kg P.O., 60 minutes","5,8"
same,T = average time for crossing over,"[1]; 60 mg/kg P.O., 60 minutes","62,2 seconds"
same,a = variation of average number of errors as regard as the controls,"[1]; 60 mg/kg P.O., 60 minutes",-
same,"b = statistical value (student's test), number of errors","[1]; 60 mg/kg P.O., 60 minutes","0,025"
same,E = average number of errors,"[1]; 60 mg/kg P.O., 120 minutes","2,7"
same,T = average time for crossing over,"[1]; 60 mg/kg P.O., 120 minutes","28,8 seconds"
same,a = variation of average number of errors as regard as the controls,"[1]; 60 mg/kg P.O., 120 minutes",-
same,"b = statistical value (student's test), number of errors","[1]; 60 mg/kg P.O., 120 minutes","0,005"
same,E = average number of errors,"[1]; 60 mg/kg P.O., 180 minutes","1,6"
same,T = average time for crossing over,"[1]; 60 mg/kg P.O., 180 minutes","18,8 seconds"
same,a = variation of average number of errors as regard as the controls,"[1]; 60 mg/kg P.O., 180 minutes",-
same,"b = statistical value (student's test), number of errors","[1]; 60 mg/kg P.O., 180 minutes","0,0005"
same,E = average number of errors,"[1]; 60 mg/kg P.O., 240 minutes","1,8"
same,T = average time for crossing over,"[1]; 60 mg/kg P.O., 240 minutes","20,1 seconds"
same,a = variation of average number of errors as regard as the controls,"[1]; 60 mg/kg P.O., 240 minutes",-
same,"b = statistical value (student's test), number of errors","[1]; 60 mg/kg P.O., 240 minutes","0,0005"
same,dose dependence of the effect on number of mistakes,"[1]; 0.6, 6 and 60 mg/kg",closely related to the used dosis
same,time after the convulsive shock at which recovery of the memory is complete,[1]; highest tested dosage (60 mg/kg),120 mn
same,activity relative to papaverine and vincamine,"[1]; rat, in vivo",more active
same,effect on the recovery of learned memory,"[1]; rat, in vivo",improving effect
same,effect on the central nervous system,central nervous system; dosage not stated,diphasic
same,effect on the central nervous system,central nervous system; higher dosages (20 to 40 mg/kg per os),sedative effect
same,effect on the central nervous system,central nervous system; higher dosages (dose not stated),sedative effects
same,effect on the central nervous system,central nervous system; low dosages,stimulating properties; also recorded: slight stimulating action
same,effect on the analgetic effect of Morphine,[2],increases the analgetic effect of Morphine
same,Hexobarbital-induced sleeping time,[3],increased
same,adrenolytic activity,[4],adrenolytic agent
same,LD50 at 168 h,in vivo,> 3000 mg/kg
same,toxicity,mice (Rockland strain),practically devoid of toxic effect
same,noticeable decrease of the blood arterial pressure (incidence),arterial blood pressure,one case out of five
same,effect on carrageenin-induced paw oedema,[5],negative
same,time of inducing the sleep after injection of Nembutal,[6],increase
